Patent US4215069A, “Arylthiovinylcyclopropanecarboxylate intermediates” (FMC Corporation, priority 1979, dated 1980)

Experiments:
[1] = tested on: milkweed bug (Oncopeltus faciatus [Dallas]); experiment: Initial contact activity against milkweed bug (percent kill); format: in vivo; details: 72 hours exposure, read-out: Percent Kill MWB, initial activity
Method: (§1) The test compound was dissolved in a small amount of acetone, and the acetone solution was dispersed in water containing one drop of isooctylphenyl polyethoxyethanol to make a solution having 1250 ppm (w/w) active ingredient. Aliquots of this solution were diluted with an appropriate amount of water to provide solutions containing various concentrations of active ingredient. Test organisms and techniques were as follows: the activity against Mexican bean beetle (Epilachna varivestis Muls.) and southern armyworm (Spodoptera eridania [Cram.]) was evaluated by dipping the leaves of pinto bean plants into the test solution and infesting the leaves with the appropriate immature-form insects when the foliage had dried. The activity against the pea aphid (Acyrthosiphon pisum [Harris]) was evaluated on broad bean plants whose leaves were dipped before infestation with adult aphids. The activity against twospotted spider mites (Tetranychus urticae Koch) was evaluated on pinto bean plants whose leaves were dipped after infestation with adult mites. The activity against the milkweed bug (Oncopeltus faciatus [Dallas]) was evaluated by spraying the test solutions into glass dishes or jars containing the adult insects. Following application of the compound and infestation the tests were maintained in a holding room at 80° F. and 50% relative humidity for an exposure period of 72 hours. At the end of this time the dead and living insects or mites were counted and the percent kill was calculated. Results of these tests are summarized in Table I. Most of the compounds tested were active against all the insects.

[2] = tested on: Mexican bean beetle (Epilachna varivestis Muls.); experiment: Initial contact activity against Mexican bean beetle (percent kill); format: in vivo; details: 72 hours exposure, read-out: Percent Kill MBB, initial activity
Method: as §1

[3] = tested on: southern armyworm (Spodoptera eridania [Cram.]); experiment: Initial contact activity against southern armyworm (percent kill); format: in vivo; details: 72 hours exposure, read-out: Percent Kill AW, initial activity
Method: as §1

[4] = tested on: pea aphid (Acyrthosiphon pisum [Harris]); experiment: Initial contact activity against pea aphid (percent kill); format: in vivo; details: 72 hours exposure, read-out: Percent Kill PA, initial activity
Method: as §1

[5] = tested on: twospotted spider mites (Tetranychus urticae Koch); experiment: Initial contact activity against twospotted spider mite (percent kill); format: in vivo; details: 72 hours exposure, read-out: Percent Kill SM, initial activity
Method: as §1

Milkweed bug = experiment: 7-day residual contact activity against milkweed bug (percent kill); format: in vivo, Oncopeltus faciatus; details: Oncopeltus fasciatus, 168 h, treated surface aged seven days in light and air, read-out: Percent Kill MWB, 7-day residual activity
Method: as §1
(§2) The residual contact activity of certain of the compounds was determined on the same organisms using the techniques described above, except that in each case the treated surface was allowed to dry and was exposed to normal light and air for seven days before introduction of the mites or insects. The seven day residual activity was minimal for the mite but substantial against the remaining organisms. Again, the remarkable activity of some of these compounds against milkweed bug and Mexican bean beetle was noted.

Mexican bean beetle = experiment: 7-day residual contact activity against Mexican bean beetle (percent kill); format: in vivo; details: Epilachna varivestis, 168 h, treated surface aged seven days in light and air, read-out: Percent Kill MBB, 7-day residual activity
Method: as §1, §2

Southern armyworm = experiment: 7-day residual contact activity against southern armyworm (percent kill); format: in vivo; details: Spodoptera eridania, 168 h, treated surface aged seven days in light and air, read-out: Percent Kill AW, 7-day residual activity
Method: as §1, §2

Pea aphid = experiment: 7-day residual contact activity against pea aphid (percent kill); format: in vivo; details: Acyrthosiphon pisum, 168 h, treated surface aged seven days in light and air, read-out: Percent Kill PA, 7-day residual activity
Method: as §1, §2

Twospotted spider mite = experiment: 7-day residual contact activity against twospotted spider mite (percent kill); format: in vivo; details: Tetranychus urticae, 168 h, treated surface aged seven days in light and air, read-out: Percent Kill SM, 7-day residual activity
Method: as §1, §2

## CC1(C)C(C=C(Cl)Sc2ccccc2)C1C(=O)OCc1cccc(Oc2ccccc2)c1 (mixture of isomers) [Example 4, 3-phenoxybenzyl cis,trans-3-[2-(E,Z)chloro-2-phenylthioethenyl]-2,2-dimethylcyclopropanecarboxylate]
[1]
  mortality at 78 ppm: 10%
  mortality at 312 ppm: 90%
  mortality at 1250 ppm: 100%
[2]
  mortality at 5 ppm: 100%
  mortality at 20 ppm: 94%
  mortality at 78 ppm: 100%
  mortality at 312 ppm: 100%
  mortality at 1250 ppm: 95%
[3]
  mortality at 5 ppm: 11%
  mortality at 20 ppm: 0%
  mortality at 78 ppm: 68%
  mortality at 312 ppm: 89%
  mortality at 1250 ppm: 100%
[4]
  mortality at 78 ppm: 75%
  mortality at 312 ppm: 100%
  mortality at 1250 ppm: 100%
[5]
  mortality at 312 ppm: 31%
  mortality at 1250 ppm: 42%
Milkweed bug
  activity at 312 ppm: 20%
  activity at 1250 ppm: 100%
Mexican bean beetle; 20 ppm
  activity at 20 ppm: 89%
Mexican bean beetle; 78 ppm
  activity at 78 ppm: 100%
Mexican bean beetle; 312 ppm
  activity at 312 ppm: 100%
Mexican bean beetle; 1250 ppm
  activity at 1250 ppm: 100%
Southern armyworm
  activity at 20 ppm: 0%
  activity at 78 ppm: 5%
  activity at 312 ppm: 55%
  activity at 1250 ppm: 95%
Pea aphid
  activity at 312 ppm: 0%
  activity at 1250 ppm: 85%
Twospotted spider mite
  activity at 1250 ppm: 0%

## CC1(C)C(C=CSc2ccc(F)cc2)C1C(=O)OCc1cccc(Oc2ccccc2)c1 (mixture of isomers) [Example 5, 3-phenoxybenzyl cis,trans-3-[2-(E,Z)-(4-fluorophenylthio)ethenyl]-2,2-dimethylcyclopropanecarboxylate]
[1]
  mortality at 78 ppm: 0%
  mortality at 312 ppm: 5%
  mortality at 1250 ppm: 15%
[2]
  mortality at 20 ppm: 33%
  mortality at 78 ppm: 35%
  mortality at 312 ppm: 95%
[3]
  mortality at 78 ppm: 0%
  mortality at 312 ppm: 0%
  mortality at 1250 ppm: 7%
[4]
  mortality at 78 ppm: 0%
  mortality at 312 ppm: 45%
  mortality at 1250 ppm: 35%
[5]
  mortality at 78 ppm: 0%
  mortality at 312 ppm: 0%
  mortality at 1250 ppm: 0%

## CC1(C)C(C=CSc2ccccc2)C1C(=O)OC(C#N)c1cccc(Oc2ccccc2)c1 (mixture of isomers) [Example 2, α-cyano-3-phenoxybenzyl cis,trans-3-[2-(E,Z)-phenylthioethenyl]-2,2-dimethylcyclopropanecarboxylate]
[1]
  mortality at 20 ppm: 0%
  mortality at 78 ppm: 20%
  mortality at 312 ppm: 90%
  mortality at 1250 ppm: 100%
[2]
  mortality at 1.2 ppm: 6%
  mortality at 5 ppm: 0%
  mortality at 20 ppm: 22%
  mortality at 78 ppm: 80%
  mortality at 1250 ppm: 100%
[3]
  mortality at 1.2 ppm: 0%
  mortality at 5 ppm: 0%
  mortality at 20 ppm: 0%
  mortality at 78 ppm: 0%
  mortality at 1250 ppm: 41%
[4]
  mortality at 20 ppm: 0%
  mortality at 78 ppm: 0%
  mortality at 312 ppm: 5%
  mortality at 1250 ppm: 75%
[5]
  mortality at 20 ppm: 0%
  mortality at 78 ppm: 0%
  mortality at 312 ppm: 0%
  mortality at 1250 ppm: 0%
Milkweed bug
  activity at 78 ppm: 5%
  activity at 312 ppm: 0%
  activity at 1250 ppm: 5%
Southern armyworm
  activity at 20 ppm: 0%
  activity at 78 ppm: 0%
  activity at 312 ppm: 0%
  activity at 1250 ppm: 0%
Pea aphid
  activity at 78 ppm: 30%
  activity at 312 ppm: 23%
  activity at 1250 ppm: 100%
Twospotted spider mite
  activity at 1250 ppm: 0%

## CC1(C)C(C=CSc2ccccc2)C1C(=O)OCc1cccc(Oc2ccccc2)c1 (mixture of isomers) [Example 1, 3-phenoxybenzyl cis,trans-3-[2-(E,Z)-phenylthioethenyl]-2,2-dimethylcyclopropanecarboxylate]
[1]
  mortality at 20 ppm: 10%
  mortality at 78 ppm: 10%
  mortality at 312 ppm: 5%
  mortality at 1250 ppm: 30%
[2]
  mortality at 1.2 ppm: 44%
  mortality at 5 ppm: 28%
  mortality at 20 ppm: 0%
  mortality at 78 ppm: 62%
  mortality at 1250 ppm: 100%
[3]
  mortality at 1.2 ppm: 0%
  mortality at 5 ppm: 0%
  mortality at 20 ppm: 0%
  mortality at 78 ppm: 0%
  mortality at 1250 ppm: 0%
[4]
  mortality at 20 ppm: 0%
  mortality at 78 ppm: 0%
  mortality at 312 ppm: 0%
  mortality at 1250 ppm: 0%
[5]
  mortality at 20 ppm: 0%
  mortality at 78 ppm: 0%
  mortality at 312 ppm: 0%
  mortality at 1250 ppm: 0%
Milkweed bug
  activity at 78 ppm: 5%
  activity at 312 ppm: 10%
  activity at 1250 ppm: 0%
Southern armyworm
  activity at 20 ppm: 0%
  activity at 78 ppm: 0%
  activity at 312 ppm: 0%
  activity at 1250 ppm: 0%
Pea aphid
  activity at 78 ppm: 0%
  activity at 312 ppm: 10%
  activity at 1250 ppm: 30%
Twospotted spider mite
  activity at 1250 ppm: 0%
